Columns and labels:
[1] = 1:1 complex, fully deprotonated chelant, 25° C., 0.1M ionic strength; cited from earlier work
[2] = 1:1 complex, fully deprotonated chelant, 25° C., 0.1M ionic strength; cited from earlier work; remark: listed apart in the source
[3] = Calculated conditional stability constants for chelants with Fe^+3 at specified pH
Excerpt: The gradual change in ligand species as pH changes can be represented using alpha (α) coefficients, defined as: [formula] […] By combining stability (K) and alpha (α) constants at a given pH, the formula below provides the effective chelating power of a chelant.

[4] = Calculated conditional stability constants for chelants with Ca^+2 at specified pH; format: physicochemical
Excerpt: (§1) However, as the pH range of the present compositions are acidic (i.e., less than 7), the log alpha value (αm) is considered to be constant and approximately negligible.
The calculated stability constants for a range of chelants with Fe^+3, Cu^+2, and Ca^+2 are given below in Table 3: […]

[5] = 1:1 complex, fully deprotonated chelant, 25° C., 0.1M ionic strength; cited from earlier work; remark: listed apart in the source
[6] = Calculated conditional stability constants for chelants with Cu^+2 at specified pH; format: physicochemical
Excerpt: as §1

log Conditional Stability Constant (@ pH) Ca^+2 ([4]; pH 2)	log Conditional Stability Constant (@ pH) Ca^+2 ([4]; pH 3)	log Conditional Stability Constant (@ pH) Ca^+2 ([4]; pH 4)	log Conditional Stability Constant (@ pH) Ca^+2 ([4]; pH 5)	log Conditional Stability Constant (@ pH) Ca^+2 ([4]; pH 6)	log Conditional Stability Constant (@ pH) Ca^+2 ([4]; pH 7)	log Conditional Stability Constant (@ pH) Ca^+2 ([4]; pH 8)	log Conditional Stability Constant (@ pH) Cu^+2 ([6]; pH 2)	log Conditional Stability Constant (@ pH) Cu^+2 ([6]; pH 3)	log Conditional Stability Constant (@ pH) Cu^+2 ([6]; pH 4)	log Conditional Stability Constant (@ pH) Cu^+2 ([6]; pH 5)	log Conditional Stability Constant (@ pH) Cu^+2 ([6]; pH 6)	log Conditional Stability Constant (@ pH) Cu^+2 ([6]; pH 8)	log Conditional Stability Constant (@ pH) Cu^+2 ([6]; pH 7)	SMILES	log K Cu [1]	log K Ca [2]	log K Fe [5]	other results
−11.11	−7.42	−4.50	−2.29	−0.13	1.36	2.56	2.59	6.28	9.20	11.41	13.39	16.26	–	O=C(O)CC(NCCNC(CC(=O)O)C(=O)O)C(=O)O (mixture of isomers) [EDDS, ethylene diamine disuccinic acid]	18.35	4.58	22.0	log Conditional Stability Constant (@ pH) Fe^+3 ([3]; pH 2): 6.29; log Conditional Stability Constant (@ pH) Fe^+3 ([3]; pH 3): 9.98; log Conditional Stability Constant (@ pH) Fe^+3 ([3]; pH 4): 12.90; log Conditional Stability Constant (@ pH) Fe^+3 ([3]; pH 6): 17.09; log Conditional Stability Constant (@ pH) Fe^+3 ([3]; pH 7): 18.76; log Conditional Stability Constant (@ pH) Fe^+3 ([3]; pH 8): 19.96
−7.26	−3.72	−0.75	1.64	3.71	5.71	7.62	3.34	6.88	9.85	12.24	14.31	18.22	16.31	O=C(O)CN(CCN(CC(=O)O)CC(=O)O)CCN(CC(=O)O)CC(=O)O [DTPA]	21.4	10.75	16.4	–
–	–	–	–	–	–	–	–	–	–	–	–	–	–	O=C(O)CC[C@H](NCCN[C@H](CCC(=O)O)C(=O)O)C(=O)O [EDDG, ethylenediamine-N,N′-diglutaric acid]	15.15	2.70	–	–
−2.65	0.19	2.36	4.35	6.14	7.45	8.50	5.45	8.29	10.46	12.45	14.24	16.60	15.55	O=C(O)CN(CCN(CC(=O)O)CC(=O)O)CC(=O)O [EDTA]	18.78	10.65	14.3	–
−7.62	−3.88	−1.45	0.13	1.25	2.27	3.27	−0.42	3.32	5.75	7.33	8.45	10.47	9.47	O=C(O)CC[C@@H](C(=O)O)N(CC(=O)O)CC(=O)O [GLD, glutamic acid diacetic acid]	–	–	–	–
–	–	–	–	–	–	–	–	–	–	–	–	–	–	O=C(O)CN(CCN(CC(=O)O)Cc1ccccc1O)Cc1ccccc1O [HBED]	9.29	9.3	39.7	log Conditional Stability Constant (@ pH) Fe^+3 ([3]; pH 2): 13.54; log Conditional Stability Constant (@ pH) Fe^+3 ([3]; pH 3): 17.54; log Conditional Stability Constant (@ pH) Fe^+3 ([3]; pH 4): 21.52; log Conditional Stability Constant (@ pH) Fe^+3 ([3]; pH 5): 25.39; log Conditional Stability Constant (@ pH) Fe^+3 ([3]; pH 6): 28.82; log Conditional Stability Constant (@ pH) Fe^+3 ([3]; pH 7): 31.89; log Conditional Stability Constant (@ pH) Fe^+3 ([3]; pH 8): 34.85
–	–	–	–	–	–	–	–	–	–	–	–	–	–	CC(O)(P(=O)(O)O)P(=O)(O)O [HEDP]	11.84	6.0	14.1	–
−5.81	−2.90	−0.35	1.68	3.21	4.33	5.34	3.39	6.30	8.85	10.88	12.41	14.54	13.53	O=C(O)CN(CCO)CCN(CC(=O)O)CC(=O)O [HEDTA]	–	–	–	–
−14.17	−10.27	−6.91	−4.50	−2.45	0.47	1.31	−4.27	−0.37	2.99	5.40	7.45	11.21	9.43	O=C(O)CC(NCC(O)CNC(CC(=O)O)C(=O)O)C(=O)O (centres unmarked) [HPDDS, 2-hydroxypropylendiamin-N—N′-disucinnic acid]	12.84	2.94	–	–
−3.10	−1.06	0.18	1.21	2.21	3.21	4.21	3.80	5.84	7.08	8.11	9.11	–	10.11	CC(C(=O)O)N(CC(=O)O)CC(=O)O (centres unmarked) [MGDA, methylglycinediacetic acid]	–	–	–	–

SMILES	log Conditional Stability Constant (@ pH) Ca^+2 ([4]; pH 2)	log Conditional Stability Constant (@ pH) Ca^+2 ([4]; pH 3)	log Conditional Stability Constant (@ pH) Ca^+2 ([4]; pH 4)	log Conditional Stability Constant (@ pH) Ca^+2 ([4]; pH 5)	log Conditional Stability Constant (@ pH) Ca^+2 ([4]; pH 6)	log Conditional Stability Constant (@ pH) Ca^+2 ([4]; pH 7)	log Conditional Stability Constant (@ pH) Ca^+2 ([4]; pH 8)	log Conditional Stability Constant (@ pH) Cu^+2 ([6]; pH 2)	log Conditional Stability Constant (@ pH) Cu^+2 ([6]; pH 3)	log Conditional Stability Constant (@ pH) Cu^+2 ([6]; pH 4)	log Conditional Stability Constant (@ pH) Cu^+2 ([6]; pH 5)	log Conditional Stability Constant (@ pH) Cu^+2 ([6]; pH 6)	log Conditional Stability Constant (@ pH) Cu^+2 ([6]; pH 8)	log Conditional Stability Constant (@ pH) Cu^+2 ([6]; pH 7)	log K Cu [1]	log K Ca [2]	log K Fe [5]	other results
O=P(O)(O)CN(CCN(CP(=O)(O)O)CP(=O)(O)O)CCN(CP(=O)(O)O)CP(=O)(O)O [DTPMP, diethylenetriamine penta(methylene phosphonic acid)]	−21.50	−17.50	−13.50	−9.50	−5.53	−1.72	1.45	−9.10	−5.10	−1.10	2.90	6.87	13.85	10.68	19.5	7.1	26.5	log Conditional Stability Constant (@ pH) Fe^+3 ([3]; pH 2): −2.10; log Conditional Stability Constant (@ pH) Fe^+3 ([3]; pH 3): 1.90; log Conditional Stability Constant (@ pH) Fe^+3 ([3]; pH 4): 5.90; log Conditional Stability Constant (@ pH) Fe^+3 ([3]; pH 5): 9.90; log Conditional Stability Constant (@ pH) Fe^+3 ([3]; pH 6): 13.87; log Conditional Stability Constant (@ pH) Fe^+3 ([3]; pH 7): 17.68; log Conditional Stability Constant (@ pH) Fe^+3 ([3]; pH 8): 20.85
